Assay results: patent US8940742B2, “Heterocyclic compounds and uses thereof” (Infinity Pharmaceuticals, Inc., priority 2012, dated 2015)

Legend:
Assay in all cases: PI3-Kinase Promega ADP-Glo Max assay
Format in all cases: biochemical
PI3K α = target: T1, PI3K α (Homo sapiens, UniProt P42336); settings: 20 nM kinase, 3 mM ATP, 500 uM diC8-PtdInsP
T1 construct: purchased Millipore
Method: (§1) Promega ADP-Glo Max assay kit (Cat. No. V7002) was utilized to determine IC50 values for α, β, δ and γ isoforms of human Class I PI3 kinases (Millipore). Samples of kinase (20 nM α or δ, 40 nM β or γ isoform) were incubated with compound for 15 minutes at room temperature in reaction buffer (15 mM HEPES pH 7.4, 20 mM NaCl, 1 mM EGTA, 0.02% Tween 20, 10 mM MgCl2, 0.2 mg/mL bovine-γ-globulins) followed by addition of ATP/diC8-PtdInsP mixture to give final concentrations of 3 mM ATP and 500 uM diC8-PtdInsP. Reactions were incubated at room temperature for 2 hours followed by addition of 25 uL of stop solution. After a 40-minute incubation at room temperature, 50 uL of Promega detection mix was added followed by incubation for 1 hour at room temperature. Plates were then read on Envision plate reader in luminescence mode. Data was converted to % inhibition using the following equation below:
(§2) [formula] where S is the sample luminescence, Pos is a positive control without added PI3K, Neg is the negative control without added compound. Data was then plotted as % inhibition vs compound concentration. Data fit to 4 parameter logistic equation to determine IC50 values: […]
(§3) Certain compounds provided herein were tested in PI3-Kinase Promega Assay using procedures as described above to determine IC50 values for α, β, δ and/or γ isoforms.

PI3K β = target: T2, PI3K β (Homo sapiens, UniProt P42338); settings: 40 nM kinase, 3 mM ATP, 500 uM diC8-PtdInsP
T2 construct: purchased Millipore
T2 sequence (P42338 whole entry): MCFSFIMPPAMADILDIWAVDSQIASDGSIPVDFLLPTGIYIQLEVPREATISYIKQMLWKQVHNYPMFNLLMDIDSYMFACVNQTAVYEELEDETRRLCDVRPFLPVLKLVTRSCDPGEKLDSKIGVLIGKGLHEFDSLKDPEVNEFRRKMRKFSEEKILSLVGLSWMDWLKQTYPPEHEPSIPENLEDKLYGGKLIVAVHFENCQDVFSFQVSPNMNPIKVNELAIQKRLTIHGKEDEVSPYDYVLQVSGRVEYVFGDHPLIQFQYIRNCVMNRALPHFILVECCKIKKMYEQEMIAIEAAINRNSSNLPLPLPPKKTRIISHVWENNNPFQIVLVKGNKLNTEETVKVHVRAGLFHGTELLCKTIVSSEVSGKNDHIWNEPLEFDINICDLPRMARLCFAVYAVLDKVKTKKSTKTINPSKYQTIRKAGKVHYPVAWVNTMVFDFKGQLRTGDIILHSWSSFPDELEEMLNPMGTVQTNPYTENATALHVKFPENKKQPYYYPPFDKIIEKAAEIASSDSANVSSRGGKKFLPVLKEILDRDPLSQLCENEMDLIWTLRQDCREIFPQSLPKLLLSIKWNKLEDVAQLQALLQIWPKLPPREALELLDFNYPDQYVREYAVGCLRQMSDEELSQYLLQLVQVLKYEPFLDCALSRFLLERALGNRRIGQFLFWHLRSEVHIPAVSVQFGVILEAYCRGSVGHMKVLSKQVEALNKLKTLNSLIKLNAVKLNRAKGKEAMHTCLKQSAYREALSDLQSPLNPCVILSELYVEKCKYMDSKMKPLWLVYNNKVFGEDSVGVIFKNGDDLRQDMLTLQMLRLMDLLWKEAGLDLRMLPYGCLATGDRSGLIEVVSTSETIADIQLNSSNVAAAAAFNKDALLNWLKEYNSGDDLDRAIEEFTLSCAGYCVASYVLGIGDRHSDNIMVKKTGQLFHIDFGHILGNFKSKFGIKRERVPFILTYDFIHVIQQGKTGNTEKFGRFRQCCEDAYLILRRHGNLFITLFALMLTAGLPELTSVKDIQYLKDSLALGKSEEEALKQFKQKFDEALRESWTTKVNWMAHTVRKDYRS
T2 sequence (P27986 whole entry partner): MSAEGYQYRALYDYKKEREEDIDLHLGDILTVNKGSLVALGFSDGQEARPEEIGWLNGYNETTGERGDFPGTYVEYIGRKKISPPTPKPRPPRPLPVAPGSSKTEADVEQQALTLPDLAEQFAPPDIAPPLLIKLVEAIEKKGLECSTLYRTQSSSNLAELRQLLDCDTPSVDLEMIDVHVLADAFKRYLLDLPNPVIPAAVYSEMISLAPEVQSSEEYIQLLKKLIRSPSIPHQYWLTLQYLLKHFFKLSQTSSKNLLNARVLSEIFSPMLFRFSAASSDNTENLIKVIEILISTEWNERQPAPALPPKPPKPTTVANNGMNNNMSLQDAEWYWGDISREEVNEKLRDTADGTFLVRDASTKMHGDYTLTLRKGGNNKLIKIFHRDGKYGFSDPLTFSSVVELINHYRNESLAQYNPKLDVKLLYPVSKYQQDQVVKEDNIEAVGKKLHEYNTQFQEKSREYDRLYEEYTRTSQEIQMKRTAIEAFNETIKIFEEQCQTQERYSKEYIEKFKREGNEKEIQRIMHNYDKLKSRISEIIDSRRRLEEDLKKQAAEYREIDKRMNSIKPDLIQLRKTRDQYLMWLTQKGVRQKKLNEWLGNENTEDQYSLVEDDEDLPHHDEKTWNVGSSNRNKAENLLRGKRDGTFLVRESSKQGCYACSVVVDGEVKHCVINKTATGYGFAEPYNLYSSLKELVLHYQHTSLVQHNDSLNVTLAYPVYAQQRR
Method: as §1, §2, §3

PI3K δ = target: T3, PI3K δ (Homo sapiens, UniProt O00329); settings: 20 nM kinase, 3 mM ATP, 500 uM diC8-PtdInsP
T3 construct: purchased Millipore
T3 sequence (O00329 whole entry): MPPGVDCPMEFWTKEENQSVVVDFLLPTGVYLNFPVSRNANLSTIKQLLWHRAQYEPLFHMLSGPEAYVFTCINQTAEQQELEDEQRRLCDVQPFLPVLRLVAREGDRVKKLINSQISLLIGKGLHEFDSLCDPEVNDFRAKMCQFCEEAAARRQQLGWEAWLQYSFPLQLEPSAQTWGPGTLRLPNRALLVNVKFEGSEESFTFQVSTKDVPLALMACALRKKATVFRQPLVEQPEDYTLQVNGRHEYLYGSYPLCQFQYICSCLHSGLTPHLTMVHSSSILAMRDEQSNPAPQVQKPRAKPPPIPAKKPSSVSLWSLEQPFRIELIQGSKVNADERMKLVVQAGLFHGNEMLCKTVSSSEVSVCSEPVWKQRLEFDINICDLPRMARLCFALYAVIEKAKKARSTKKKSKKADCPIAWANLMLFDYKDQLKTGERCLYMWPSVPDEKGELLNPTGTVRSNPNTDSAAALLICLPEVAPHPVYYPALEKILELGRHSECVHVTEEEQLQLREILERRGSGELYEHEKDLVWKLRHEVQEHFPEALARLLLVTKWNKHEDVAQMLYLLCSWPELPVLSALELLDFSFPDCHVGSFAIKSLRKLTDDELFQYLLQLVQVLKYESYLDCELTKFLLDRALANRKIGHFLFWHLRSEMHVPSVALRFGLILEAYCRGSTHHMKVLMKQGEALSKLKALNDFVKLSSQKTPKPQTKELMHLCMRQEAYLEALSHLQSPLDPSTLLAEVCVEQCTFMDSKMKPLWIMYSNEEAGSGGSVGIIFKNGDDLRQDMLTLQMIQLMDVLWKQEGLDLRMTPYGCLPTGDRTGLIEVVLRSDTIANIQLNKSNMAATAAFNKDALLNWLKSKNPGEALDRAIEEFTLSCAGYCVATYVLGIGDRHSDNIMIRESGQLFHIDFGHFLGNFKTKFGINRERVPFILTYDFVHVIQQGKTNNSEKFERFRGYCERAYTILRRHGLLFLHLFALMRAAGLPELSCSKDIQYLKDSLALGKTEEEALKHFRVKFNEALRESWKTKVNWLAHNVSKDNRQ
T3 sequence (P27986 whole entry partner): as the sequence (P27986 whole entry partner) above
Method: as §1, §2, §3

PI3K γ = target: T4, PI3K γ (Homo sapiens, UniProt P48736); settings: 40 nM kinase, 3 mM ATP, 500 uM diC8-PtdInsP
T4 construct: purchased Millipore
T4 sequence (P48736 whole entry): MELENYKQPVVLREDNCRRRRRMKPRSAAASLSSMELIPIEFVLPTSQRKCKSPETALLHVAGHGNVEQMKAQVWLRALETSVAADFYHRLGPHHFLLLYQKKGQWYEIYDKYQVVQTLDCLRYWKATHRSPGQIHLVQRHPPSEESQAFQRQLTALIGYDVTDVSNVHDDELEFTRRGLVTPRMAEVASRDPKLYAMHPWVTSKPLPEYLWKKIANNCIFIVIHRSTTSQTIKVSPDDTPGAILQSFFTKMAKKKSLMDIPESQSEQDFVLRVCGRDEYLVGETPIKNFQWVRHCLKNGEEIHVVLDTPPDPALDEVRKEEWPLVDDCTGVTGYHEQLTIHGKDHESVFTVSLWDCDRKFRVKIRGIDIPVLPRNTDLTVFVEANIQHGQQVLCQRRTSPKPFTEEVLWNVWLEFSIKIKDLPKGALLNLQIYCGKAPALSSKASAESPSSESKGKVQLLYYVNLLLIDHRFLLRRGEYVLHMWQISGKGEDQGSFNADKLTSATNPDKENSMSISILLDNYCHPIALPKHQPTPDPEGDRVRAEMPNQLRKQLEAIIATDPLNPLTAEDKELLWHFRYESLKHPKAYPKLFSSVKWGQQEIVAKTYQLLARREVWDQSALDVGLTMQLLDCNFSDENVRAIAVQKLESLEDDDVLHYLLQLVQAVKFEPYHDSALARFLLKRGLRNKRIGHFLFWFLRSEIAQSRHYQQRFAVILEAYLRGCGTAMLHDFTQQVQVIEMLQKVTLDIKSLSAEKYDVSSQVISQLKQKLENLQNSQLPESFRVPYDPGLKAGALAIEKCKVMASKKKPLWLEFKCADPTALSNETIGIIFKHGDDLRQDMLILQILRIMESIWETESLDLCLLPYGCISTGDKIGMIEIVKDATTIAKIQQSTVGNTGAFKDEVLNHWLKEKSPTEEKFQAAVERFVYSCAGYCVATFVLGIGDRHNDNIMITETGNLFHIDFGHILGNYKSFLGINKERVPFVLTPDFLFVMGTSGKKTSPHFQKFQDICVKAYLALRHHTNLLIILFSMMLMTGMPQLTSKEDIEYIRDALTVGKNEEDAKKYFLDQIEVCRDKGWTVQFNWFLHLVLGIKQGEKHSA
Method: Promega ADP-Glo Max assay kit (Cat. No. V7002) was utilized to determine IC50 values for α, β, δ and γ isoforms of human Class I PI3 kinases (Millipore). […] Reactions were incubated at room temperature for 2 hours followed by addition of 25 uL of stop solution. After a 40-minute incubation at room temperature, 50 uL of Promega detection mix was added followed by incubation for 1 hour at room temperature. Plates were then read on Envision plate reader in luminescence mode. Data was converted to % inhibition using the following equation below:
[formula] where S is the sample luminescence, Pos is a positive control without added PI3K, Neg is the negative control without added compound. Data was then plotted as % inhibition vs compound concentration.
as §3

T1 sequence (P42336 whole entry): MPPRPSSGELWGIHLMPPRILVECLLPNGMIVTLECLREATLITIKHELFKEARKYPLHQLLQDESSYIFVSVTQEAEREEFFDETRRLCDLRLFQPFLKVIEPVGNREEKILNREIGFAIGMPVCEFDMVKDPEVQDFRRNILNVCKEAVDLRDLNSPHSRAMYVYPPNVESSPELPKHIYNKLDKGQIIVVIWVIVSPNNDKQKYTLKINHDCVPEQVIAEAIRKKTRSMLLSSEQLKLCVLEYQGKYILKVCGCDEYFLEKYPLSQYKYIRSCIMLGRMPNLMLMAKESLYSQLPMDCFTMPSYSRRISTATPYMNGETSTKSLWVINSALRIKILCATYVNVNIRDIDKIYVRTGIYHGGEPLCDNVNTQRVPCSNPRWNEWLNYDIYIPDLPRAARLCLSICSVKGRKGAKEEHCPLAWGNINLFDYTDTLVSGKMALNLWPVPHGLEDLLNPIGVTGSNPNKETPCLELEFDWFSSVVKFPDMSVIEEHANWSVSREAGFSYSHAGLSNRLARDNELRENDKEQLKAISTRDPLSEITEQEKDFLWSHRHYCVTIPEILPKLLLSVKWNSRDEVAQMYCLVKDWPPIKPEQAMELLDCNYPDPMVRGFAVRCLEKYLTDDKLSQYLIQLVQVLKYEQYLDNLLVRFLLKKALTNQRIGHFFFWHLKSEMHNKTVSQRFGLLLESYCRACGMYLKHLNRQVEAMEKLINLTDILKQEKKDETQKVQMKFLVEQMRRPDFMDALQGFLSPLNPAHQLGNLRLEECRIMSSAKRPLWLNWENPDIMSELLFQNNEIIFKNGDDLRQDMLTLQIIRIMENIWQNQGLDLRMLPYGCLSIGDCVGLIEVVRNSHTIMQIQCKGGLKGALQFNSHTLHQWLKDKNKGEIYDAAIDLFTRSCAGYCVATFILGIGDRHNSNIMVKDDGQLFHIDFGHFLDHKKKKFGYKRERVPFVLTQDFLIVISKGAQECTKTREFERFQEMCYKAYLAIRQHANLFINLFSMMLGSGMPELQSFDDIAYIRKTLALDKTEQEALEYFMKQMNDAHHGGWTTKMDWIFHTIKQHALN
T1 sequence (P27986 whole entry partner): as the sequence (P27986 whole entry partner) above

SMILES | IC50 (PI3K α) [µM] | IC50 (PI3K β) [µM] | IC50 (PI3K δ) [µM] | IC50 (PI3K γ) [µM]
CC(C)c1ccnc2c(C(=O)N[C@@H](C)c3cc4cccc(Cl)c4c(=O)n3-c3ccccc3)c(N)nn12 [Compound 177] | > 10 | > 10 | > 10 | > 10
CC(=O)Nc1ncc(-c2cccc(NS(C)(=O)=O)c2)nc1C(=O)N[C@@H](C)c1cc2cccc(Cl)c2c(=O)n1C [Compound 185] | > 10 | > 10 | > 10 | > 10
C[C@H](NC(=O)c1c(N)nn2cccnc12)c1cc2cccc(/C=C/c3ccccc3)c2c(=O)n1-c1ccccc1 [Compound 199] | > 10 | > 10 | > 10 | > 10
COc1cc(-c2csc3cc([C@H](C)NC(=O)c4c(N)nn5cccnc45)n(-c4ccccc4)c(=O)c23)ccn1 [Compound 213] | > 10 | > 10 | > 10 | > 10
C[C@H](NC(=O)c1c(N)nn2cccnc12)c1cc2cccc(/C=N\O)c2c(=O)n1-c1ccccc1 [Compound 226] | > 10 | > 10 | 1 to 10 | 0.1 to 1
C[C@H](NC(=O)c1c(N)nn2cccnc12)c1cc2cccc(CNCC3CCCO3)c2c(=O)n1-c1ccccc1 (stereo partly drawn) [Compound 229] | > 10 | > 10 | 1 to 10 | 1 to 10
CNCc1cccc2cc([C@H](C)NC(=O)c3c(N)nn4cccnc34)n(-c3ccccc3)c(=O)c12 [Compound 230] | > 10 | > 10 | 1 to 10 | > 10
C[C@H](NC(=O)c1c(N)nn2cccnc12)c1cc2cccc(CN(C)C)c2c(=O)n1-c1ccccc1 [Compound 231] | > 10 | > 10 | < 0.1 | > 10
CC(=O)N(C)Cc1cccc2cc([C@H](C)NC(=O)c3c(N)nn4cccnc34)n(-c3ccccc3)c(=O)c12 [Compound 232] | > 10 | > 10 | < 0.1 | > 10
COc1cc(-c2cccc3cc([C@H](C)NC(=O)c4c(N)nn5cccnc45)n(C4CCCCC4)c(=O)c23)ccn1 [Compound 233] | > 10 | > 10 | > 10 | 1 to 10

Next, values leading:

IC50 (PI3K α) [µM] | IC50 (PI3K β) [µM] | IC50 (PI3K δ) [µM] | IC50 (PI3K γ) [µM] | SMILES
> 10 | > 10 | 1 to 10 | 1 to 10 | COc1ccc(-c2cnc(N)c(C(=O)N[C@@H](C)c3cc4cccc(Cl)c4c(=O)n3-c3ccccc3)n2)cc1F [Compound 94]
> 10 | > 10 | > 10 | > 10 | C[C@H](NC(=O)c1nc(-c2cccc(S(=O)(=O)N3CCOCC3)c2)cnc1N)c1cc2cccc(Cl)c2c(=O)n1-c1ccccc1 [Compound 95]
1 to 10 | 1 to 10 | 1 to 10 | 1 to 10 | C[C@H](NC(=O)c1nc(-c2cccc(S(=O)(=O)N3CCN(C)CC3)c2)cnc1N)c1cc2cccc(Cl)c2c(=O)n1-c1ccccc1 [Compound 100]
> 10 | > 10 | > 10 | > 10 | COc1cccc(-c2cnc(N)c(C(=O)N[C@@H](C)c3cc4cccc(Cl)c4c(=O)n3-c3ccccc3)n2)c1 [Compound 105]
> 10 | 1 to 10 | > 10 | 1 to 10 | Nc1nn2cccnc2c1C(=O)N1CCC[C@H]1c1cc2cccc(Cl)c2c(=O)n1-c1ccccc1 [Compound 147]
> 10 | > 10 | 1 to 10 | > 10 | Nc1nccnc1C(=O)N1CCC[C@H]1c1cc2cccc(Cl)c2c(=O)n1-c1ccccc1 [Compound 148]
< 0.1 | < 0.1 | < 0.1 | < 0.1 | C[C@H](NC(=O)c1nc(-c2cncc(NS(C)(=O)=O)c2)cnc1N)c1cc2cccc(Cl)c2c(=O)n1C1CC1 [Compound 172]
1 to 10 | < 0.1 | < 0.1 | 1 to 10 | CNCCn1c([C@H](C)NC(=O)c2c(N)nn3cccnc23)cc2cccc(Cl)c2c1=O [Compound 241]
